Laboratory results published in patent publication US11660310B2, “Low dose combination CDA substrate drug/cedazuridine with extended administration” (Otsuka Pharmaceutical Co., Ltd., priority 2018, dated 2023).

Tests used:
[1] = system: sickle cell disease model; conditions: sickle cell disease model in baboons; Am. J. Hematol. 1985; cited from earlier work
clinical = conditions: human, in vivo, iv, 20 mg/m2, 5-Days total (AUClast) IV

Structure (SMILES) | effect on the potency of decitabine [1] | AUC(0-t) (clinical)
O=C1NC(O)CCN1[C@@H]1O[C@H](CO)[C@@H](O)[C@H]1O (some centres unmarked) [Tetrahydrouridine] | improve the potency of decitabine | –
Nc1ncn([C@H]2C[C@H](O)[C@@H](CO)O2)c(=O)n1 [decitabine, 5-aza-2′-deoxycytidine] | – | 852 ng·h/mL
